Measurements: ChEMBL document CHEMBL1201862, “PubChem BioAssay data set” (2004)
Activity calls are given as the source filed them.

Tests used:
[1] = viability of PTEN-deleted HCT116 cells – cell-based, HCT116 PTEN knockout, dose response (AID 1047); format: functional;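 note: HCT116 colon tumor cells with PTEN knocked out; cells exposed to compound for 60 hours before readout; potency for loss of cell viability measured by luminescence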
[2] = viability of HCT116 lacking mutant beta-catenin – cell-based, human colon tumor, dose response (AID 1045); format: functional;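 note: HCT116 colon tumor cells with beta catenin knocked out; cells exposed to compound for 60 hours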
Caspase-3 = target: T1, Caspase-3 (Homo sapiens, UniProt P42574); format: functional;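 note: Dose-response selectivity test against caspase-3 for candidate inhibitors of sentrin-specific proteases (SENPs)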
T1 sequence (P42574 whole entry): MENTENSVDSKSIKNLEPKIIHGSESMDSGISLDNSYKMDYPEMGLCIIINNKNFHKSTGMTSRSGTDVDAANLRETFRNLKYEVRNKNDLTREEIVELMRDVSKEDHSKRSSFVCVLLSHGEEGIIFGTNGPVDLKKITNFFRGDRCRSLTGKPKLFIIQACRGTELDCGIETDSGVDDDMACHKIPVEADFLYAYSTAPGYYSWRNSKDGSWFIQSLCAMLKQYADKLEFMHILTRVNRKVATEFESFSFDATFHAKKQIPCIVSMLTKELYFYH

[3] = target: T2, Sentrin-specific protease 7 (Homo sapiens, UniProt Q9BQF6); format: functional;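 note: Luminescence-based dose-response confirmation of ultra-high-throughput screening hits, measuring inhibition of SENP7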
T2 sequence (Q9BQF6 whole entry): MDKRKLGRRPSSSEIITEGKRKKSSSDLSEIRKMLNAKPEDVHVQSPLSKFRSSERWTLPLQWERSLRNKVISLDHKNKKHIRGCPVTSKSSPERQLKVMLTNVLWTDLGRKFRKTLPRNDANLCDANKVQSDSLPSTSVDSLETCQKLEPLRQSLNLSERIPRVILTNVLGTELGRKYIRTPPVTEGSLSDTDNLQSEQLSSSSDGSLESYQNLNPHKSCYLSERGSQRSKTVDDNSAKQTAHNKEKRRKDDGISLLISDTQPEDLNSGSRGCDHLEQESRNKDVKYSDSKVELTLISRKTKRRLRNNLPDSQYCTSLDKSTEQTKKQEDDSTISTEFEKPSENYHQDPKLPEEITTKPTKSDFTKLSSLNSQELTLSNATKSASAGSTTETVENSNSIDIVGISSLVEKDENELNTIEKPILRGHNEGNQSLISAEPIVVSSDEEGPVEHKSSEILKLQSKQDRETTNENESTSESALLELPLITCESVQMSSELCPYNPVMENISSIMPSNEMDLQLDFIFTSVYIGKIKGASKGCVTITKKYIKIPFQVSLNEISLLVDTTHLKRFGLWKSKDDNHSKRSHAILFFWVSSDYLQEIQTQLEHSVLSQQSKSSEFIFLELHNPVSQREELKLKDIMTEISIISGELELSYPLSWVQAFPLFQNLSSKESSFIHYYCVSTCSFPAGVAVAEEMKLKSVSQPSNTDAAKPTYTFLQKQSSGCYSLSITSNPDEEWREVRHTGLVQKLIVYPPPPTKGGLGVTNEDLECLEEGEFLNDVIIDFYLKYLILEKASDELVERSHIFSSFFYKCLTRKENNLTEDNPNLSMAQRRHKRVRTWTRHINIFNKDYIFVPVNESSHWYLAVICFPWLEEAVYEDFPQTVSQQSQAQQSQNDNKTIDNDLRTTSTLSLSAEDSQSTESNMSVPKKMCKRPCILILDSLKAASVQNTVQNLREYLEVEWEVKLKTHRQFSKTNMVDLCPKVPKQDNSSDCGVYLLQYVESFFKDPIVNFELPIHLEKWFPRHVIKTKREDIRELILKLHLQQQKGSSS

[4] = target: T3, Sentrin-specific protease 6 (Homo sapiens, UniProt Q9GZR1); format: functional;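 note: Luminescence-based dose-response confirmatory assay of SENP6 inhibition, following up an ultra-high-throughput screen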
T3 sequence (Q9GZR1 whole entry): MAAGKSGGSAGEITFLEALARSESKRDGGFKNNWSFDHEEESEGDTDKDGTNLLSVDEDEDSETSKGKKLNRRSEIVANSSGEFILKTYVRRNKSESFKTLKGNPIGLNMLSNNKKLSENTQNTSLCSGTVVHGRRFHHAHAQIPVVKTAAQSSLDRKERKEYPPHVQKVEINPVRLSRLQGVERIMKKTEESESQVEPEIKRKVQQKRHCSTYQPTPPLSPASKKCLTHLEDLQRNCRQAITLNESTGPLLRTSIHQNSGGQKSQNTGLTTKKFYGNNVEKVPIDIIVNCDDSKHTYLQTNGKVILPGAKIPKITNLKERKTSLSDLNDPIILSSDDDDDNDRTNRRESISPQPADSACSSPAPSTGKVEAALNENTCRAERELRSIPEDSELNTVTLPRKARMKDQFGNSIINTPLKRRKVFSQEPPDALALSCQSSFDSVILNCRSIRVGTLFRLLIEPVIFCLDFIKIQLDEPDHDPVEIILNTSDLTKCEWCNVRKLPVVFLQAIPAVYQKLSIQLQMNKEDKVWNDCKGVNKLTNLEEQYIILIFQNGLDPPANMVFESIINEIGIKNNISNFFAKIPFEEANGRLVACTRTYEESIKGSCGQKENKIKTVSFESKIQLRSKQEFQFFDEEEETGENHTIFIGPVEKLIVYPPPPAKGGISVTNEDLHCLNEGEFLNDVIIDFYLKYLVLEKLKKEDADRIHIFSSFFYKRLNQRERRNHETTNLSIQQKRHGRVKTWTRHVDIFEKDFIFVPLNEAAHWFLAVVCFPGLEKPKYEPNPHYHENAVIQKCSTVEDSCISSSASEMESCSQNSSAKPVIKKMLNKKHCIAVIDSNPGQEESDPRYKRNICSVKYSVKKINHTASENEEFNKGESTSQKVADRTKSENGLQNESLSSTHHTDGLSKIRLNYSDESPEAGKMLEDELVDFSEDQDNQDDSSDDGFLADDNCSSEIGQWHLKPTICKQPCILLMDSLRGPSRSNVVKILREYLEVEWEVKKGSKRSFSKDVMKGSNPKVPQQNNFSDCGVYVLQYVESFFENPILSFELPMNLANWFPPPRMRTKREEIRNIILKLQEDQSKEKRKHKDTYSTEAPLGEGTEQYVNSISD

[5] = target: T4, Sentrin-specific protease 8 (Homo sapiens, UniProt Q96LD8); format: functional;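 note: luminescence read-out of SENP8 inhibition, dose-response confirmation following an ultra-high-throughput screen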
T4 sequence (Q96LD8 whole entry): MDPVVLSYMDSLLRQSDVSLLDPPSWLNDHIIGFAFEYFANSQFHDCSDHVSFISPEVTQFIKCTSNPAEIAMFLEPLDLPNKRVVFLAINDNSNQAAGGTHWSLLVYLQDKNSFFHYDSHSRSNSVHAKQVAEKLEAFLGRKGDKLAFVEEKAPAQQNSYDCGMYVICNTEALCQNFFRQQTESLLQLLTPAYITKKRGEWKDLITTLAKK

Protein skinhead-1 = target: T5, Protein skinhead-1 (Caenorhabditis elegans, UniProt P34707); format: functional
T5 sequence (P34707 whole entry): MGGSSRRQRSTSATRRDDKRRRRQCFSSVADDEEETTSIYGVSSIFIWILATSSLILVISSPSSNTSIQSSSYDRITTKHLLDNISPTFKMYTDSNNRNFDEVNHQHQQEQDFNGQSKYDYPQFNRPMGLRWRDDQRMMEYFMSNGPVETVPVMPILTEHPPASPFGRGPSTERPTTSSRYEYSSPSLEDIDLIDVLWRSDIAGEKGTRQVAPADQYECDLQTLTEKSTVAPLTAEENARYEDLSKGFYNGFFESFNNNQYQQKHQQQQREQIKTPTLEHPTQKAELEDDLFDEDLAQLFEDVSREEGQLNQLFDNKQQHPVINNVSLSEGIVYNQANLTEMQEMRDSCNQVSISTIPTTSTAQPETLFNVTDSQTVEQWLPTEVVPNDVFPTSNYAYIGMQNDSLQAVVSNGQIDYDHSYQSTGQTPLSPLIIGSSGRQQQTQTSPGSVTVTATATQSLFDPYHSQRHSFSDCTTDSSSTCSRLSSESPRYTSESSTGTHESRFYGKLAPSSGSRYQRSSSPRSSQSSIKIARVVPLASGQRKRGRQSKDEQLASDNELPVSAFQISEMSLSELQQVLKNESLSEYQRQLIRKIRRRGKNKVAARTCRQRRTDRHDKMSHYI

P388/ADR = experiment: cells; format: functional; conditions: Mus musculus
SN12K1 = experiment: cells; format: functional; conditions: Homo sapiens
P388 = experiment: cells; format: functional; conditions: Mus musculus
[6] = A549 cell cytotoxicity, dose response, cytotoxicity control, plate reader, cherry-pick, antagonist series (AID 743412); format: functional, cell-based
[7] = toxicity toward HepG2 liver cells – cell-based, plate reader, cherry-pick, antagonist series, cytotoxicity control, dose response (AID 743416); format: functional
[8] = blockers of HIV-1 envelope-mediated cell-cell fusion – cherry-pick, dose response (AID 652057); format: functional, cell-based
[9] = HIV-1 AD8 envelope cell-cell fusion blockers – cherry-pick, dose response (AID 652062); format: functional, cell-based;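 note: luciferase signal from cell-cell fusion driven by HIV-1 clade B AD8 Env; potency is for inhibitors of fusion seen as a drop in luminescence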
[10] = viability of uninfected HEp-2 cells – cell-based, HTS, cytotoxicity control for RSV inhibitor project, dose response (AID 2410); format: functional; conditions: human respiratory syncytial virus

## COc1ccc(/C(O)=C/c2nc3ccc(C(=O)NCCc4cccc(C)c4)cc3nc2O)cc1OC
[1]
  EC50: 6.66 µM (active)
[2]
  EC50: 5.65 µM (active)

## O=C(Cn1cc(SCc2ccc(Cl)cc2)c2ccccc21)N1CCOCC1
Caspase-3
  IC50: 27.1 µM (active)
[3]
  IC50: 6.14 µM (active)
[4]
  IC50: 10.3 µM (active)
[5]
  IC50: > 100 µM (inactive)

## Cc1cccc(OCc2cc(-c3ccccc3)no2)c1C
Caspase-3
  IC50: 26.6 µM (active)
[3]
  IC50: 5.47 µM (active)
[4]
  IC50: 20.1 µM (active)
[5]
  IC50: 42.8 µM (active)

## O=C(COc1ccc(Cc2ccccc2)cc1)c1ccc(F)cc1
Caspase-3
  IC50: 39.9 µM (active)
[3]
  IC50: 15.6 µM (active)
[4]
  IC50: 69.3 µM (active)
[5]
  IC50: > 100 µM (inactive)

## Cc1c(Cl)cccc1N/C(SCC(=O)N1CCCCCC1)=C(/C#N)c1nc2ccccc2s1
[1]
  EC50: 4.06 µM (active)
[2]
  EC50: 4.02 µM (active)

## O=C(NC(=S)Nc1ccc(NC(=O)c2cccs2)cc1)c1cc2ccccc2o1
[1]
  EC50: 15.5 µM (active)
[2]
  EC50: 22.6 µM (active)

## Cc1ccccc1-c1nnc(-c2ccccc2C)o1
Caspase-3
  IC50: 20.5 µM (active)
[3]
  IC50: 12.1 µM (active)
[4]
  IC50: 6.65 µM (active)
[5]
  IC50: 95.5 µM (active)
Protein skinhead-1
  IC50: > 100 µM (inactive)

## CCCCCCCCCCCCCCCCOCC(COP(=O)([O-])OCC[N+](C)(C)C)OCCCCCCCCCCCCCCCC (stereo not given)
P388/ADR
  GI50: > 100 µM (inactive)
SN12K1
  GI50: > 100 µM (inactive)
P388
  GI50: > 100 µM (inactive)

## CN(c1ccccc1)c1c(-c2ccccc2)c(=O)oc2c1ccc1occc12
P388/ADR
  GI50: 74.6 µM (inactive)
SN12K1
  GI50: > 100 µM (inactive)
P388
  GI50: 37.8 µM (inactive)

## COc1cc2c(cc1Oc1c(Oc3c(O)c(OC)cc4c3C(CC(C)C)N(C)CC4)c(OC)cc3c1C(CC(C)C)N(C)CC3)C(CC(C)C)N(C)CC2 (stereo not given)
P388/ADR
  GI50: 0.706 µM (active)
SN12K1
  GI50: 0.794 µM (active)
P388
  GI50: 0.279 µM (active)

## CCN(CC)c1c(C)c(C(=O)OC)nn1-c1ccccc1
P388/ADR
  GI50: 31.6 µM (inactive)
SN12K1
  GI50: > 100 µM (inactive)
P388
  GI50: 34.8 µM (inactive)

## COc1ccccc1CN(C)C[C@@H]1OCc2cnnn2CCCC(=O)N([C@H](C)CO)C[C@H]1C
[6]
  AC50: > 52 µM (inactive)
[7]
  AC50: 39.8 µM (active)

## COc1cccc(S(=O)(=O)N(C)C[C@H]2Oc3cc(C4=CCCC4)ccc3S(=O)(=O)N([C@H](C)CO)C[C@H]2C)c1
[8]
  AC50: 3.31 µM (active)
[9]
  AC50: 3.77 µM (active)

## Cc1cccnc1Nc1nc(-c2ccc(O)cc2O)cs1
[10]
  CC50: 27 µM (active)
Caspase-3
  IC50: 41.8 µM (active)
[3]
  IC50: 3.79 µM (active)
[4]
  IC50: 8 µM (active)
[5]
  IC50: 15.5 µM (active)

## C=C1CC(OC)(C(O)C(=O)N[C@H]2OCO[C@H]3C2O[C@H](C[C@@H](CO)OC)C(C)(C)C3OC)O[C@H](C)[C@@H]1C (stereo not given in full)
P388/ADR
  GI50: < 0.00931 µM (active)
SN12K1
  GI50: < 0.00931 µM (active)
P388
  GI50: < 0.00931 µM (active)

## O=C1C(=O)c2cc([N+](=O)[O-])ccc2-c2ccc([N+](=O)[O-])cc21
P388/ADR
  GI50: 0.292 µM (active)
SN12K1
  GI50: 0.29 µM (active)
P388
  GI50: 0.201 µM (active)

## O=C(N/N=C/c1cccs1)c1cccc(NC(=O)c2ccc(Cl)cc2)c1
[1]
  EC50: 61.1 µM (active)
[2]
  EC50: 55.4 µM (active)

## O=C1c2ccccc2-c2nnc(-c3ccc(F)cc3)cc21
Caspase-3
  IC50: 2.59 µM (active)
[3]
  IC50: 1.9 µM (active)
[4]
  IC50: 2.5 µM (active)
[5]
  IC50: 3.58 µM (active)

## COc1ccc2c(c1[N+](=O)[O-])CC[C@@H]1[C@@H]2CC[C@]2(C)C(=O)CC[C@@H]12
P388/ADR
  GI50: 20.9 µM (inactive)
SN12K1
  GI50: > 25 µM (inactive)
P388
  GI50: > 25 µM (inactive)

## Nc1c(C(=O)Nc2ccc(C3=NCCN3)cc2)cccc1C(=O)Nc1ccc(C2=NCCN2)cc1
P388/ADR
  GI50: > 100 µM (inactive)
SN12K1
  GI50: > 100 µM (inactive)
P388
  GI50: 12.5 µM (inactive)

## Oc1ncc(N(CCCl)CCCl)c(O)n1 [URACIL MUSTARD]
P388/ADR
  GI50: 1.77 µM (inactive)
SN12K1
  GI50: 17.4 µM (inactive)
P388
  GI50: 1.26 µM (inactive)
